This note sets out measurements from patent EP4741392A1, “1H-PYRAZOLO[4,3-C]PYRIDINE COMPOUND, AND COMPOSITION THEREOF AND USE THEREOF” (Shenzhen TargetRx Co., Ltd., priority 2023, dated 2025).

What all share (assay type): biochemical
The target of one test is T1, BTK C481S (Homo sapiens, UniProt Q06187, C481S).
T1 construct: purchased Carna 08-547
Description: Kinase activity inhibition assay (HTRF TK Kit). From the text: (§1) In this assay, the HTRF TK Kit (Catalog No. 62TK0PEC) provided by Cisbio was used to detect the inhibitory activity of compounds on BTK kinase, BTK T474I kinase and BTK C481 S kinase and the selectivity of compounds relative to EGFR, ITK and TEC kinases.
(§2) Reagents and consumables: BTK kinase (Invitrogen, Catalog No. PV3587), BTK C481S (Carna, Product No. 08-547), BTK T474I(SignalChem Product No. B10-12HH), ITK (Cama, Product No. 08-181), EGFR (Cama, Product No. 08-115), TEC (Carna, Product No. 08-182), HTRF-TK kit (Cisbio, Product No. 62TK0PEC), MgCl2 (Sigma, Product No. M1028), MnCl2 (Sigma, Product No. M1787), DTT (Sigma, Product No. D0632), ATP (Sigma, Product No. A7699-1g), DMSO (Sigma, Product No. D2650), 384-well plate (PE, Product No. 6008280).
(§3) The entire operation steps were carried out on ice, and the total reaction volume was 10µL. A compound (4µL), substrate and ATP (4µL), and kinase (2µL) were added in sequence to a 384-well plate, and the plate was shaken for 30 seconds. The mixture was reacted at room temperature for an appropriate time, and then the detection reagent was added. The resulting mixture was reacted at room temperature for 1 hour, and then the plate was assayed with a microplate reader. The specific steps were as follows: • a) a 1 × kinase buffer solution required for the kinase assay was calculated according to the amount of the test compound, and prepared as needed; • b) 2.5 × working concentration of a compound was prepared, 100-fold gradient concentration solutions of a compound were diluted by 40 × to the desired concentration, respectively, mixed well, and added to each well at 4 µL per well; • c) 5 × working concentration of the substrate and ATP were prepared, mixed in a ratio of 1:1 before being added to the 384-well plate, and added to each well at 4 µL per well; • d) 5 × working concentration of a kinase was prepared, 2 µL of which was added to each well; • e) the plate was shaken on a microplate shaker for 30 seconds, sealed with a sealing membrane, and the mixture was reacted at room temperature for an appropriate time; • f) 4 × working concentration of streptavidin XL-665 and TK antibody-cryptate compound were prepared, mixed in a ratio of 1:1 before being added to the 384-well plate, and added to each well at 10 µL per well; • g) the mixture was reacted at room temperature for 1 hour, and then the plate was read; • h) the wells with only substrate, ATP and 1% DMSO added but no kinase were blank control wells, and the wells with only substrate, ATP, 1% DMSO and kinase were positive control wells.
(§4) Readings: The values of 620 nm (cryptate) and 665 nm (XL665) were read with a BioTek Synerg Neo2 microplate reader, the ratio of 665/620 for each well was calculated, and the data were exported.
(§5) Data analysis: IC50 was calculated using GraphPad Prism 7.0 software.
(§6) The IC50 (half-maximal inhibitory concentration) of the compound was obtained using the following nonlinear fitting formula: Y = Bottom + (Top−Bottom)/(1+10^(∧)((LogIC50−X)*HillSlope)) [formula] • X: Log value of the compound concentration • Y: Inhibition rate (% inhibition) • Top: Maximum response • Bottom: Baseline response • HillSlope: Slope of the curve
(§7) The formula for calculating kinase inhibition rate (inhibition rate %) was: [formula]
(TR-FRET usually uses a lanthanide donor and a delayed reading to cut background.)

The target in the next test is T2, BTK T474I (Homo sapiens, UniProt Q06187, T474I).
T2 construct: purchased SignalChem B10-12HH
Description: Kinase activity inhibition assay (HTRF TK Kit).
Excerpt: as §1, §2, §3, §4, §5, §6, §7

The target in another test is T3, BTK kinase (Homo sapiens, UniProt Q06187).
T3 construct: purchased Invitrogen PV3587
The test can be described thus: Kinase activity inhibition assay (HTRF TK Kit).
Excerpt: as §1, §2, §3, §4, §5, §6, §7

The target of another test is T4, EGFR (Homo sapiens, UniProt P00533).
T4 construct: purchased Carna 08-115
The test can be described thus: Kinase activity inhibition assay (HTRF TK Kit), selectivity.
Excerpt: as §1, §2, §3, §4, §5, §6, §7

The target in the next test is T5, ITK (Homo sapiens, UniProt Q08881).
T5 construct: purchased Carna 08-181
T5 sequence (Q08881 1-620): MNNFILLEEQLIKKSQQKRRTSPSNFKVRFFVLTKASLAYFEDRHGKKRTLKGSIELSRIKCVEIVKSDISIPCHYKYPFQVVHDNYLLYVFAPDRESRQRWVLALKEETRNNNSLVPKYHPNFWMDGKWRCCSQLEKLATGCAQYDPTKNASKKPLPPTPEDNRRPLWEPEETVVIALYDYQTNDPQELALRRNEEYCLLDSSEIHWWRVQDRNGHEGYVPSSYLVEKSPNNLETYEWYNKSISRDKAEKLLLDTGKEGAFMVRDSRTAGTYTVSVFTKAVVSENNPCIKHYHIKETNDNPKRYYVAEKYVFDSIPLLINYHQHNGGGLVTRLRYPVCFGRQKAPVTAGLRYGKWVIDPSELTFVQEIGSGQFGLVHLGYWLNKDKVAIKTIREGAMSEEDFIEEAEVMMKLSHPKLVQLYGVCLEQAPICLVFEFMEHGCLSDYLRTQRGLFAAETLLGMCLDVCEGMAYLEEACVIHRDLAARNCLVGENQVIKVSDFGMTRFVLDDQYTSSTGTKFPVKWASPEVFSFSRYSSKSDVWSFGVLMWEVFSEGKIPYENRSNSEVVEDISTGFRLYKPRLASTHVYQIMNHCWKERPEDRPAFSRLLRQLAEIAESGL
The description is as above.
Excerpt: as §1, §2, §3, §4, §5, §6, §7

The target of another test is T6, TEC (Homo sapiens, UniProt P42680).
T6 construct: purchased Carna 08-182
T6 sequence (P42680 1-631): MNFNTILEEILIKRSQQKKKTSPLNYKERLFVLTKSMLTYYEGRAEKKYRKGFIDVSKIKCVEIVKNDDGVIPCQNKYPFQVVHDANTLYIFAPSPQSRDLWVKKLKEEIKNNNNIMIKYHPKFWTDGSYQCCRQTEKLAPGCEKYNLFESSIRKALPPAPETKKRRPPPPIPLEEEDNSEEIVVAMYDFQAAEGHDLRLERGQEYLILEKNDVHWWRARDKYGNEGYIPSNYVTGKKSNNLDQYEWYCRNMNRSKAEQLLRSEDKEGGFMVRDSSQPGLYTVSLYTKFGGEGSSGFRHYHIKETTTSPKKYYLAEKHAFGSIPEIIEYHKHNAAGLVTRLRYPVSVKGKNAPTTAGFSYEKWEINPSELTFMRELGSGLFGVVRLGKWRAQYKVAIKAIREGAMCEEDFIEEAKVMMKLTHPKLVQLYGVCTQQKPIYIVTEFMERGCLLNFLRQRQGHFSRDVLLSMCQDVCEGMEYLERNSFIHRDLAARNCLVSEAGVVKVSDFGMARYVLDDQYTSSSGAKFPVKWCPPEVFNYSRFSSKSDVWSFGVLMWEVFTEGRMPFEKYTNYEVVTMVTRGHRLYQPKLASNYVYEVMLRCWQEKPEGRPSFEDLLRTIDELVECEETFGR
The test is described as above.
Excerpt: as §1, §2, §3, §4, §5, §6, §7

Where only a bound is given, the exact number is not on record here.

T3 sequence (Q06187 whole entry): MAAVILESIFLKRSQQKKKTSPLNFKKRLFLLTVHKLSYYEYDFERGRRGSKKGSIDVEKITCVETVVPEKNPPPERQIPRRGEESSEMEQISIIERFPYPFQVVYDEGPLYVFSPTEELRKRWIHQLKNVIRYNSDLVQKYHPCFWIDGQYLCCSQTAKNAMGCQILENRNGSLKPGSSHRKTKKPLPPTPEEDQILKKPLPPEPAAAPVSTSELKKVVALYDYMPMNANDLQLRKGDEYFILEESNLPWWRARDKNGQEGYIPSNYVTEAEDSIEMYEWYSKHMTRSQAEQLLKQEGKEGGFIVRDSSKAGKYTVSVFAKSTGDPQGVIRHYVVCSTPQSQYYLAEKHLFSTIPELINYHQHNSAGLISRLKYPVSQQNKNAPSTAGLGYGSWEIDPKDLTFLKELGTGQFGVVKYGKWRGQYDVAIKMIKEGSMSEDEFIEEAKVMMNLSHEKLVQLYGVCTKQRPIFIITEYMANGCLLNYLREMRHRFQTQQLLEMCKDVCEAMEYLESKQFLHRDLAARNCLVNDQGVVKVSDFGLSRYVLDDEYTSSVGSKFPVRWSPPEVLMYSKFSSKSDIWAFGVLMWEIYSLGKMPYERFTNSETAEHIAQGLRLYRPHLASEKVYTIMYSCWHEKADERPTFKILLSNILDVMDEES
T4 sequence (P00533 669-1210 limits assumed): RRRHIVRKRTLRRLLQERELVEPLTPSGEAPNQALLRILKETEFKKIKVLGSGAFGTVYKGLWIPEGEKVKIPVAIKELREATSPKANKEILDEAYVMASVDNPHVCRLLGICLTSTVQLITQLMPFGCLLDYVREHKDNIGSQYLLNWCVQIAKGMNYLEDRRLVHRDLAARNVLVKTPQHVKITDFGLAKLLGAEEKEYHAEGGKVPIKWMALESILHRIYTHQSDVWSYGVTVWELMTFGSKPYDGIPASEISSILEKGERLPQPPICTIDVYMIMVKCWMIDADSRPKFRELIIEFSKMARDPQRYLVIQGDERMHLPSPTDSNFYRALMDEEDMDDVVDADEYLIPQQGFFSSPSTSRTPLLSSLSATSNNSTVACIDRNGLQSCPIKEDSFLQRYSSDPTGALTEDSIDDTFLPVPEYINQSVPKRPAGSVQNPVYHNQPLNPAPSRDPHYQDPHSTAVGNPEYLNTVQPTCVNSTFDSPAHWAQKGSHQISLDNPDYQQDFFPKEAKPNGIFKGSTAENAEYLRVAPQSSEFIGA
T2 sequence (Q06187 whole entry T474I): as the sequence (Q06187 whole entry) above, with T474I counted along it
T1 sequence (Q06187 whole entry C481S): as the sequence (Q06187 whole entry) above, with C481S counted along it

Take `COc1ccc(F)cc1C(=O)NCc1ccc(-c2ncc(-c3ccn(CC(F)(F)F)n3)c3[nH]nc(N)c23)cc1` [Example 28, N-(4-(3-amino-7-(1-(2,2,2-trifluoroethyl)-1H-pyrazol-3-yl)-1H-pyrazolo[4,3-c]pyridin-4-yl)benzyl)-5-fluoro-2-methoxybenzamide]: the IC50 – broadly, the concentration at which inhibition is half-maximal – at BTK C481S was in the range of 1 to 5 nM; on BTK T474I it was 50 to 500 nM; on BTK kinase it was 1 to 5 nM; on EGFR, 5 to 50 nM; at ITK, 50 to 500 nM; at TEC it was 5 to 50 nM.

For `COc1ccc(F)cc1C(=O)NCc1ccc(-c2ncc(-c3cn(C)cn3)c3[nH]nc(N)c23)cc1` [Example 30, N-(4-(3-amino-7-(1-methyl-1H-imidazol-4-yl)-1H-pyrazolo[4,3-c]pyridin-4-yl)benzyl)-5-fluoro-2-methoxybenzamide], the IC50 at BTK C481S was 1 to 5 nM; on BTK T474I it was 50 to 500 nM; on BTK kinase, 1 to 5 nM; on EGFR, 50 to 500 nM; at ITK, greater than 500 nM; at TEC, 50 to 500 nM.

In the case of `COc1ccc(F)cc1C(=O)NCc1ccc(-c2ncc(-c3cc[nH]n3)c3[nH]nc(N)c23)cc1` [Example 31, N-(4-(3-amino-7-(1H-pyrazol-3-yl)-1H-pyrazolo[4,3-c]pyridin-4-yl)benzyl)-5-fluoro-2-methoxybenzamide], the IC50 on BTK C481S is 1 to 5 nM; on BTK T474I, 50 to 500 nM; on BTK kinase, 1 to 5 nM; on EGFR it was 50 to 500 nM; at ITK, greater than 500 nM; at TEC, 50 to 500 nM.

In the case of `COc1ccc(F)cc1C(=O)NCc1ccc(-c2ncc(-c3ccc(S(C)(=O)=O)cn3)c3[nH]nc(N)c23)cc1` [Example 35, N-(4-(3-amino-7-(5-(methylsulfonyl)pyridin-2-yl)-1H-pyrazolo[4,3-c]pyridin-4-yl)benzyl)-5-fluoro-2-methoxybenzamide], the IC50 was no more than 1 nM on BTK C481S; 5 to 50 nM at BTK T474I; no more than 1 nM at BTK kinase; 50 to 500 nM on EGFR; 50 to 500 nM at ITK; 5 to 50 nM on TEC.

Consider `COc1ccc(F)cc1C(=O)NCc1ccc(-c2ncc(-c3ncc(F)cn3)c3[nH]nc(N)c23)cc1` [Example 36, N-(4-(3-amino-7-(5-fluoropyrimidin-2-yl)-1H-pyrazolo[4,3-c]pyridin-4-yl)benzyl)-5-fluoro-2-methoxybenzamide], for which the IC50 on BTK C481S is 1 to 5 nM; on BTK T474I it was 50 to 500 nM; at BTK kinase, 1 to 5 nM; on EGFR it was 50 to 500 nM; on ITK it was greater than 500 nM; on TEC, 50 to 500 nM.

Turning to `COc1ccc(F)cc1C(=O)NCc1ccc(-c2ncc(-c3ccc(C)cn3)c3[nH]nc(N)c23)cc1` [Example 37, N-(4-(3-amino-7-(5-methylpyridin-2-yl)-1H-pyrazolo[4,3-c]pyridin-4-yl)benzyl)-5-fluoro-2-methoxybenzamide], the IC50 at BTK C481S was no more than 1 nM; on BTK T474I, 50 to 500 nM; on BTK kinase it was no more than 1 nM; on EGFR it was 50 to 500 nM; on ITK it was greater than 500 nM; on TEC it was 5 to 50 nM.

Take `COc1ccc(F)cc1C(=O)NCc1ccc(-c2ncc(-c3ccc(Cl)cn3)c3[nH]nc(N)c23)cc1` [Example 38, N-(4-(3-amino-7-(5-chloropyridin-2-yl)-1H-pyrazolo[4,3-c]pyridin-4-yl)benzyl)-5-fluoro-2-methoxybenzamide]: the IC50 at BTK C481S was 1 to 5 nM; at BTK T474I, 50 to 500 nM; at BTK kinase, 5 to 50 nM; on EGFR it was 50 to 500 nM; on ITK it was greater than 500 nM; at TEC it was 5 to 50 nM.

Consider `COc1ccc(F)cc1C(=O)NCc1ccc(-c2ncc(-c3ncc(C)cn3)c3[nH]nc(N)c23)cc1` [Example 39, N-(4-(3-amino-7-(5-methylpyrimidin-2-yl)-1H-pyrazolo[4,3-c]pyridin-4-yl)benzyl)-5-fluoro-2-methoxybenzamide], for which the 50% inhibitory concentration (IC50) at BTK C481S was no more than 1 nM; at BTK T474I, 5 to 50 nM; on BTK kinase, no more than 1 nM; on EGFR, 50 to 500 nM; at ITK, 50 to 500 nM; on TEC, 5 to 50 nM.

`COc1ccc(F)cc1C(=O)NCc1ccc(-c2ncc(-c3ccc(OC(F)(F)F)cn3)c3[nH]nc(N)c23)cc1` [Example 41, N-(4-(3-amino-7-(5-(trifluoromethoxy)pyridin-2-yl)-1H-pyrazolo[4,3-c]pyridin-4-yl)benzyl)-5-fluoro-2-methoxybenzamide]: the half-maximal inhibitory concentration (IC50) on BTK C481S is no more than 1 nM; at BTK T474I, 5 to 50 nM; on BTK kinase, 1 to 5 nM; at EGFR it was 50 to 500 nM; at ITK, 50 to 500 nM; on TEC, 5 to 50 nM.

For `COc1ccc(F)cc1C(=O)NCc1ccc(-c2ncc(-c3ncc(C(F)(F)F)cn3)c3[nH]nc(N)c23)cc1` [Example 42, N-(4-(3-amino-7-(5-(trifluoromethyl)pyrimidin-2-yl)-1H-pyrazolo[4,3-c]pyridin-4-yl)benzyl)-5-fluoro-2-methoxybenzamide], the IC50 was 1 to 5 nM at BTK C481S; greater than 500 nM on BTK T474I; 1 to 5 nM on BTK kinase; greater than 500 nM at EGFR; greater than 500 nM on ITK; 50 to 500 nM on TEC.
